What all share (type): cell-based
Test [1] concerns the target T1, human TLR9 (Homo sapiens, UniProt Q9NR96).
T1 construct: host or cells: HEK-Blue cells
T1 sequence (Q9NR96 26-1032): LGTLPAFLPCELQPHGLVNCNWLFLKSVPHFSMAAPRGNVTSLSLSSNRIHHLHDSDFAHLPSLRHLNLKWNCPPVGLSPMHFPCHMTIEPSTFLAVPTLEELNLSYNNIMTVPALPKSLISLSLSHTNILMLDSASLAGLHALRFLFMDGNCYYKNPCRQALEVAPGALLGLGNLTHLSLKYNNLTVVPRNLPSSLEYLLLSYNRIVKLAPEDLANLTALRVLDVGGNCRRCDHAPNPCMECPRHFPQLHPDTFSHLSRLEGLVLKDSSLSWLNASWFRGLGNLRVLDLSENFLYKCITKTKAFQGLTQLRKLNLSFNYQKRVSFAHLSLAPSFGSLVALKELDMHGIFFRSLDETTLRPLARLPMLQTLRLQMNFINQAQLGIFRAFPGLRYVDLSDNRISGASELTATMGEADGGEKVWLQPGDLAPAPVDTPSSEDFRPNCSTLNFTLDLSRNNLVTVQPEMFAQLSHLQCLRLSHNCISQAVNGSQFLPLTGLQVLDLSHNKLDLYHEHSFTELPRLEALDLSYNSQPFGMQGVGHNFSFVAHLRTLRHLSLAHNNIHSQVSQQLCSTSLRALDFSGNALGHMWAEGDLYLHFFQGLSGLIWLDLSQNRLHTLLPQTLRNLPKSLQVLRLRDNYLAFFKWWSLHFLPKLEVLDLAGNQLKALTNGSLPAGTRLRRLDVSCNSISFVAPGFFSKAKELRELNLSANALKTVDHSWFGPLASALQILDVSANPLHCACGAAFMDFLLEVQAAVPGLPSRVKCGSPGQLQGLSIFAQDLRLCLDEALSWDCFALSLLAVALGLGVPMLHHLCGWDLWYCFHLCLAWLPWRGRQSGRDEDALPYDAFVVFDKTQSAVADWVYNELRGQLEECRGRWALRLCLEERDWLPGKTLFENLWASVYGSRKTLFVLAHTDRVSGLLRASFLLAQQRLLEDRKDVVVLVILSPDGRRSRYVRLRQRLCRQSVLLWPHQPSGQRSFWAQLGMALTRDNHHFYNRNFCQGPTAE
The test is described as follows: TLR9 inhibition reporter assay (HEK-Blue SEAP reporter, ODN2006 stimulation). To be noted: HEK-Blue cells overexpressing human TLR9, SEAP reporter, ODN2006 5 nM, 22 hour incubation. The procedure, abridged: (§1)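 Agonists used: gardiquimod 7.5 μM (TLR7), R848 15.9 μM (TLR8), ODN2006 5 nM (TLR9), added after 30 min room-temperature compound pre-treatment (0.05 nM–50 μM) of receptor-overexpressing HEK-Blue cells. SEAP reporter (NF-κB/AP-1 driven) read after 22 h at 37 °C; inhibition scaled between agonist+DMSO and reference-inhibitor wells.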
Background: A reporter such as luciferase makes a cellular process visible.

In test [2] the target is T2, human TLR8 (Homo sapiens, UniProt Q9NR97).
T2 construct: host or cells: HEK-Blue cells
T2 sequence (Q9NR97 27-1041): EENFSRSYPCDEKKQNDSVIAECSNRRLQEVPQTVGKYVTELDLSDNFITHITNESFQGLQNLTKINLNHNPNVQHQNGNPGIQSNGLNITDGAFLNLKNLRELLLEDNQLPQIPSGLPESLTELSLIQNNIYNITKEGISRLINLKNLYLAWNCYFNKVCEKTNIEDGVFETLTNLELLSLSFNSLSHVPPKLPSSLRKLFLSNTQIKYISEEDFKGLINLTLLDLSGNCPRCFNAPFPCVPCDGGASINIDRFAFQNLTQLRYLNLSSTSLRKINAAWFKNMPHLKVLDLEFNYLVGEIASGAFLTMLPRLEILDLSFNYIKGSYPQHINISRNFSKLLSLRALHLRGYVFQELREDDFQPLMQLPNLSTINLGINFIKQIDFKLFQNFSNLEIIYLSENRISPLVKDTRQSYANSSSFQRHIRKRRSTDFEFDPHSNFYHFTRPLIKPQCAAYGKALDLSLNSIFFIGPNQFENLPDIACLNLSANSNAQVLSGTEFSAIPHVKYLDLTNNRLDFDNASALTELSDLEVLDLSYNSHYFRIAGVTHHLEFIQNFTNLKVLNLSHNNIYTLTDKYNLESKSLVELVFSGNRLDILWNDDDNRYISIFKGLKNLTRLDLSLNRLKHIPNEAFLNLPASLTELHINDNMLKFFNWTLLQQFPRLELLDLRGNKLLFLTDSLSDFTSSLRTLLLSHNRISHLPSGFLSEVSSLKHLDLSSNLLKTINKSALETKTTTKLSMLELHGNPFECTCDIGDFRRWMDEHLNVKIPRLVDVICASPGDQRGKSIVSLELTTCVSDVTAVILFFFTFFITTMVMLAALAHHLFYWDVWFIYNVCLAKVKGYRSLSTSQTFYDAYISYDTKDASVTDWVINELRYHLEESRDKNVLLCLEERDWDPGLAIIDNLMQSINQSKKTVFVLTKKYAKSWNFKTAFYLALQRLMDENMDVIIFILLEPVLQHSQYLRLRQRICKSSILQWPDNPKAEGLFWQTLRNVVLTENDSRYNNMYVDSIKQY
Briefly: TLR8 inhibition reporter assay (HEK-Blue SEAP reporter, R848 stimulation). To be noted: HEK-Blue cells overexpressing human TLR8, SEAP reporter, R848 15.9 μM, 22 hour incubation. The procedure, abridged:
as §1

Test [3] concerns the target T3, human TLR7 (Homo sapiens, UniProt Q9NYK1).
T3 construct: host or cells: HEK-Blue cells
T3 sequence (Q9NYK1 27-1049): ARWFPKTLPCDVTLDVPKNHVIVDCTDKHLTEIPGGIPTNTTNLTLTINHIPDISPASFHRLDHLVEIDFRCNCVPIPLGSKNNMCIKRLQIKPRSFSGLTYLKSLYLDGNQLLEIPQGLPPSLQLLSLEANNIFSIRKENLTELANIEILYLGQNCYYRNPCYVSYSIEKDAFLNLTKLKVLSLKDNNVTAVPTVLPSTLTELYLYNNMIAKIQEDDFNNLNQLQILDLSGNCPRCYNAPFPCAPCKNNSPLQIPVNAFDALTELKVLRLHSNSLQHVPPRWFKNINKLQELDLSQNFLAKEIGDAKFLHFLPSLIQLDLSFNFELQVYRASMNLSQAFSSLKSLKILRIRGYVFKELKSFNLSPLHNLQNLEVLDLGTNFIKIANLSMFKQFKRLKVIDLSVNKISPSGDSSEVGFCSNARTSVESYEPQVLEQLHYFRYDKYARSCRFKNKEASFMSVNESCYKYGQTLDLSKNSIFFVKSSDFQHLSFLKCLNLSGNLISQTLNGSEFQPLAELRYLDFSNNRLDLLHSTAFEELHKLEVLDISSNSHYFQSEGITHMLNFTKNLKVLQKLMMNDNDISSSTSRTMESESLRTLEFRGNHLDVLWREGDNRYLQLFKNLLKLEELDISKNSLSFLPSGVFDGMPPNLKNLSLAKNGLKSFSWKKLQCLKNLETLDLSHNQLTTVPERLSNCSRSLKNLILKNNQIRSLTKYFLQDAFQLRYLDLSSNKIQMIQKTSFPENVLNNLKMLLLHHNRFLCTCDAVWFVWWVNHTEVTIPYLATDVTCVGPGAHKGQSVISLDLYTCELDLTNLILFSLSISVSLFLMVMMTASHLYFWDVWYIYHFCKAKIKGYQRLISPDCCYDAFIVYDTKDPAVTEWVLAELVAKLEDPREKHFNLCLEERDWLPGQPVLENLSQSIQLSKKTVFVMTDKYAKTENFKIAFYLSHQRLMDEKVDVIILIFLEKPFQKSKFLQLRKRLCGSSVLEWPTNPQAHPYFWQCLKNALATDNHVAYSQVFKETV
Briefly: TLR7 inhibition reporter assay (HEK-Blue SEAP reporter, gardiquimod stimulation). To be noted: HEK-Blue cells overexpressing human TLR7, SEAP reporter, gardiquimod 7.5 μM, 22 hour incubation. The procedure, abridged: as §1

For 13 molecules, IC50 results are on record in patent US11447466B2, “Substituted indole compounds useful as inhibitors of TLR7/8/9” (BRISTOL-MYERS SQUIBB COMPANY, priority 2017, dated 2022).

By IC50 is commonly meant the concentration that inhibits the measured activity by half.

Consider `Cc1c(-c2[nH]c3ccc(C4CCN(CCC(C)C)CC4)cc3c2C(C)C)cn(C)c(=O)c1Cl` [Example 91, 3-chloro-5-(5-(1-isopentylpiperidin-4-yl)-3-isopropyl-1H-indol-2-yl)-1,4-dimethylpyridin-2(1H)-one], for which the values for the half-maximal inhibitory concentration (IC50) in test [1], in test [2] and in test [3] were 4390 nM, 5 nM and 2.6 nM, respectively.

For `CC(C)c1c(-c2ccc(=O)n(C)n2)[nH]c2ccc(C3CCNCC3)cc12` [Example 5, 6-(3-isopropyl-5-(piperidin-4-yl)-1H-indol-2-yl)-2-methylpyridazin-3(2H)-one], the IC50 is 763 nM in test [1], 107 nM in test [2] and 179 nM in test [3].

As for `CNC(=O)CN1CCC(c2ccc3[nH]c(-c4cn(C)c(=O)c(C)c4C)c(C(C)C)c3c2)CC1` [Example 135, 2-(4-(3-isopropyl-2-(1,4,5-trimethyl-6-oxo-1,6-dihydropyridin-3-yl)-1H-indol-5-yl)piperidin-1-yl)-N-methylacetamide], the IC50 was 19000 nM in test [1], 5.6 nM in test [2] and 5.3 nM in test [3].

In the case of `COc1cc(-c2[nH]c3ccc(C4CCNCC4)cc3c2C(C)C)cn(C)c1=O` [Example 20, 5-(3-isopropyl-5-(piperidin-4-yl)-1H-indol-2-yl)-3-methoxy-1-methylpyridin-2(1H)-one], the IC50 in test [1] amounted to 1790 nM; in test [2], 17 nM; in test [3], 6 nM.

`CNC(=O)c1cccc(-c2cc(-c3[nH]c4ccc(C5CCNCC5)cc4c3C(C)C)cn(C)c2=O)c1` [Example 59, 3-(5-(3-isopropyl-5-(piperidin-4-yl)-1H-indol-2-yl)-1-methyl-2-oxo-1,2-dihydropyridin-3-yl)-N-methylbenzamide]: the IC50 in test [1] stood at 5850 nM; in test [2] it was 270 nM; in test [3], 46.6 nM.

Regarding `CC(C)c1c(-c2cc(C#N)c(=O)n(C)c2)[nH]c2ccc(C3CCNCC3)cc12` [Example 47, 5-(3-isopropyl-5-(piperidin-4-yl)-1H-indol-2-yl)-1-methyl-2-oxo-1,2-dihydropyridine-3-carbonitrile], the half-maximal inhibitory concentration (IC50) worked out at 1890 nM in test [1], 41.1 nM in test [2] and 31.9 nM in test [3].

As for `Cc1cc(-c2[nH]c3ccc(C4CCNCC4)cc3c2C(C)C)cn(CC(C)C)c1=O` [Example 36, 1-isobutyl-5-(3-isopropyl-5-(piperidin-4-yl)-1H-indol-2-yl)-3-methylpyridin-2(1H)-one], the IC50 in test [1] came out at 1310 nM; in test [2], 81.2 nM; in test [3], 9.6 nM.

In the case of `CC(C)c1c(-c2cc(-c3cncnc3)c(=O)n(C)c2)[nH]c2ccc(C3CCN(CC4CCOC4)CC3)c(F)c12` (stereo not drawn) [Example 259, 5-(4-fluoro-3-isopropyl-5-(1-((tetrahydrofuran-3-yl)methyl)piperidin-4-yl)-1H-indol-2-yl)-1-methyl-3-(pyrimidin-5-yl)pyridin-2(1H)-one], the IC50 in test [1] was 983 nM; in test [2], 0.6 nM; in test [3] it was 6.1 nM.

With `COCCOCCN1CCC(c2ccc3[nH]c(-c4cn(C)c(=O)c(Cl)c4C)c(C(C)C)c3c2)CC1` [Example 101, 3-chloro-5-(3-isopropyl-5-(1-(2-(2-methoxyethoxy)ethyl)piperidin-4-yl)-1H-indol-2-yl)-1,4-dimethylpyridin-2(1H)-one], the IC50 is 4880 nM in test [1], 9.3 nM in test [2] and 12.8 nM in test [3].

Take `CC(C)c1c(-c2cc(-c3cccnc3)c(=O)n(C)c2)[nH]c2ccc(C3CCN(C)CC3)cc12` [Example 247, 5-(3-isopropyl-5-(1-methylpiperidin-4-yl)-1H-indol-2-yl)-1-methyl-[3,3′-bipyridin]-2(1H)-one]: the IC50 in test [1] came to 864 nM; in test [2], 4.1 nM; in test [3], 3 nM.

In the case of `CCCN1CCC(c2ccc3[nH]c(-c4cc(-c5cnc(C)nc5)c(=O)n(C)c4)c(C(C)C)c3c2)CC1` [Example 337, 5-(3-isopropyl-5-(1-propylpiperidin-4-yl)-1H-indol-2-yl)-1-methyl-3-(2-methylpyrimidin-5-yl)pyridin-2(1H)-one], the IC50 was found to be 2490 nM in test [1], 11.9 nM in test [2] and 1.8 nM in test [3].

For `CNC(=O)CN1CCC(c2ccc3[nH]c(-c4cc(C)c(=O)n(C)n4)c(C(C)C)c3c2)CC1` [Example 118, 2-(4-(2-(1,5-dimethyl-6-oxo-1,6-dihydropyridazin-3-yl)-3-isopropyl-1H-indol-5-yl)piperidin-1-yl)-N-methylacetamide], the IC50 in test [1] came out at 9640 nM; in test [2] it was 14.5 nM; in test [3], 18.6 nM.

For `Cc1c(-c2[nH]c3ccc(C4CCN(C(=O)CN(C)C)CC4)cc3c2C(C)C)nn(C)c(=O)c1C` [Example 283, 6-(5-(1-(dimethylglycyl)piperidin-4-yl)-3-isopropyl-1H-indol-2-yl)-2,4,5-trimethylpyridazin-3(2H)-one], the IC50 is 6250 nM in test [1], 46.8 nM in test [2] and 512 nM in test [3].
